Data on two molecules can be found in US8404858B2, “Agent for regeneration and/or protection of nerves” (Ono Pharmaceutical Co., Ltd., priority 2005, dated 2013).

By EC50 is commonly meant the concentration at which the effect is half-maximal.

One series deals with T1, rat EP3 receptor (Rattus norvegicus, UniProt P34980).
T1 construct: expressed in transfected cells; host or cells: CHO cells (rEP3-CHO)
T1 sequence (P34980 1-365): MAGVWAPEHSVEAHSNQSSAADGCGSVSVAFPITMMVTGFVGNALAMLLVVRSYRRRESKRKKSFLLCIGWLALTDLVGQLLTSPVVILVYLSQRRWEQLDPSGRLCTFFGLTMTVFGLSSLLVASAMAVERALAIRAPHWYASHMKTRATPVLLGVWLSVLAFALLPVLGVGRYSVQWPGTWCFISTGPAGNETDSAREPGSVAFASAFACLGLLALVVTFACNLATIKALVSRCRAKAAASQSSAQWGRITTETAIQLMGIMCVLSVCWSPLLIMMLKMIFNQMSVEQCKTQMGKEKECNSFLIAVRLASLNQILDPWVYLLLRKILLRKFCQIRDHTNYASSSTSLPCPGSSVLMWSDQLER
Put plainly: Measurement of EP3 agonist activity (intracellular calcium concentration real time imaging, Ca2+ assay). In kind it is cell-based. As to conditions: rEP3-CHO cell, maximum = PGE2 (100 nmol/L). Here is the method: (1-2) Measurement of EP3 Agonist Activity (Intracellular Calcium Concentration Real Time Imaging (Ca^2+ Assay))
A rat EP3 receptor forced expression cell (rEP3-CHO cell) was incubated in an incubator (5% CO2) of 37° C. using Minimum Essential Medium Eagle (Sigma, M4526) to which 10% fetal bovine serum (FBS, JRH) and 1/100 of total volume of Penicillin Streptomycin Glutamine (GIBCO, 10378-016) had been added. The cells which reached confluent were exfoliated using trypsin and suspended in a medium (MEM medium containing 10% FBS) to a density of 1.0×10^5 cells per ml. […]
After the incubation, the culture fluid was removed from each well of the plate and a Fura2 loading buffer (10% FBS-containing MEM medium supplemented with Fura2-AM (5 μmol/L), HEPES (10 mmol/L), probenecid (2.5 mmol/L) and indometacin (20 μmol/L)) was added thereto, followed by incubating in an incubator (5% CO2) of 37° C. […] Measurement of the fluorescence intensity was continuously carried out for 3 minutes after addition of the compound.
Activity intensity of each compound was compared by calculating their EC50 values. The EC50 value was calculated by regarding mean of the changed amount of calcium concentration when PGE2 (100 nmol/L) was added instead of each compound as the maximum changed amount, and defining the value which gives half of the changed amount as the concentration of each compound. […]
(A change in cytosolic calcium serves as a functional read-out for many receptors and channels.)

The subject of the next series is cauda equina nerve. Put plainly: Measurement of cauda equina nerve repair acceleration activity (rat cauda equina nerve compression gait disturbance model). It counts as in vivo. As to conditions: intravenous continuous administration 2 hours×twice/day, 2 weeks, in comparison with the physiological saline administration group. The method, then:
(2) Measurement of Cauda Equina Nerve Repair Acceleration Activity
A rat cauda equina nerve compression gait disturbance model was prepared by the method of Takenobu et al. (J. Neurosci. Methods, 104 (2), 191-198, 2002). Namely, a rat was anesthetized with pentobarbital sodium and, after shaving its dorsal region, fixed at abdominal position. After disinfection of the dorsal region with chlorhexidine gluconate (5% hibitane liquid; Sumitomo Pharmaceuticals), the waist was median-incised to expose the spinal column. After excision of the fifth lumbar gemmule, a silicon rubber of 1×4×1.25 mm (height×length×width) was inserted into the fourth lumbar and sixth lumbar spinal canals from a small hole on the vertebral arch bored by a mini drill. For the purpose of avoiding infections, benzylpenicillin potassium (Crystalline Penicillin G Potassium Meiji; Meiji Seika Kaisha, Ltd.) was added dropwise to the incised part and intramuscularly injected into the thigh parts. The muscle and skin of the incised part were stitched with a surgical suture, and Iodine Tincture was applied to the stitched part. Animals of the sham operation group were prepared in accordance with the aforementioned method, but the insertion of silicon rubber was not carried out. […]

In another series the target is T2, rat EP2 receptor (Rattus norvegicus, UniProt Q62928).
T2 construct: expressed in transfected cells; host or cells: CHO cells (rEP2-CHO)
The series can be described thus: Measurement of EP2 agonist activity (intracellular cyclic AMP concentration, cAMP assay). In kind it is cell-based. As to conditions: rEP2-CHO cell, maximum = PGE2 (1 μmol/l). Here is the method:
(1-1) Measurement of EP2 Agonist Activity (Measurement of Intracellular Cyclic AMP (cAMP) Concentration (cAMP Assay))
A rat EP2 receptor forced expression cell (rEP2-CHO cell) was incubated in an incubator (5% CO2) of 37° C. using Minimum Essential Medium Eagle (Sigma, M4526) to which 10% fetal bovine serum (FBS, JRH) and 1/100 total volume of Penicillin Streptomycin Glutamine (GIBCO, 10378-016) had been added. The cells which reached confluent were exfoliated using trypsin and suspended in a medium (MEM medium containing 10% FBS) to a density of 2.0×10^5 cells per ml. The thus prepared suspension was seeded into a 24 well plate to be 1.0×10^5 cells per well portions and incubated for 48 hours. […]
The frozen sample was thawed and transferred to a micro centrifugation tube to be centrifuged (15,000 rpm, 4° C., 3 minutes). […] Using the upper layer as a sample, cAMP concentration was measured by a cAMP EIA system (cAMP Enzyme Immunoassay System, Amersham Biosciences).
Activity strengths of respective compounds were compared by calculating their EC50 values. The EC50 value was calculated by regarding changed amount of the cAMP concentration when PGE2 (1 μmol/l) was added instead of each compound as the maximum changed amount, and defining the value which gives half of the changed amount as the concentration of each compound.
Background: Changes in cAMP serve as a functional read-out for many G protein-coupled receptors.

The subject of a further series is rat. Put plainly: Measurement of the cauda equina blood flow and the blood pressure. It counts as in vivo. As to conditions: urethane-anesthetized rat, continuous infusion through caudal vein for 30 minutes. Here is the method: (3) The Measurement of the Cauda Equina Blood Flow and the Blood Pressure
1.5 g/kg of urethane was administered intraperitoneally to the rat to be anesthetized, and the catheter (for measurement of blood pressure and ventricular rate) was placed in left carotid artery in supine position. The rat was reversed to prone position and the lumbar part was incised in the median line. The laminectomy was given to the fifth lumbar vertebra and the spinal cord (cauda equina) was exposed. The cauda equina blood flow was measured by the laser-Doppler flowmetry (OMEGAFLD FLO-NI and ADVANCE LASER FLOWMETER ALF21N, OMEGA WAVE Inc.) through a noncontact probe (ST-N type, OMEGA WAVE Inc.) and recorded with LINEARCORDER (Graphtech). The systemic blood pressure and the ventricular rate were measured from a left carotid artery with amplifier for the pressure measurement (GOULD) through a pressure transducer and recorded with LINEARCORDER (Graphtech). After confirming each parameter of blood pressure, ventricular rate and blood flow was stabilized, the test compound was administrated by continuous infusion through the winged needle placed in caudal vein for 30 minutes. It observed until 30 minutes after the administration and the increase rate of the cauda equina blood flow was calculated.
The increase rate of the cauda equina blood flow (%)=(B−A)/A×100 […]

T2 sequence (Q62928 whole entry): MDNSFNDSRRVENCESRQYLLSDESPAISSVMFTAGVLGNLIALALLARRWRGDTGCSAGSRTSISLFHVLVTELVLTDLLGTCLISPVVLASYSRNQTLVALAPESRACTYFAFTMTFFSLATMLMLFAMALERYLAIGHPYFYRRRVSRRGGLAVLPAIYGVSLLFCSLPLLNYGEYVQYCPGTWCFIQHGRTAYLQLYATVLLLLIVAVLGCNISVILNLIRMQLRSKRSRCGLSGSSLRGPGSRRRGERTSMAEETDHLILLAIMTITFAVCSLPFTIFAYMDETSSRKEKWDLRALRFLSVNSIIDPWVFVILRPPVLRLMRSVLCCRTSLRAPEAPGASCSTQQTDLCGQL

`O=C(O)c1csc(SCCN2C(=O)OC[C@@H]2/C=C/[C@@H](O)C2(CCCCF)CCC2)n1` [compound A, 2-{[2-((4S)-4-{(1E,3R)-3-[1-(4-fluorobutyl)cyclobutyl]-3-hydroxy-1-propenyl}-2-oxo-1,3-oxazolidin-3-yl)ethyl]sulfanyl}-1,3-thiazole-4-carboxylic acid]: the concentration giving a half-maximal response (EC50) at rat EP3 receptor was 99 nM; at rat EP2 receptor, 16 nM. Further, the “appearance rate of regeneration nerve fascicles” value in the series with cauda equina nerve is given as “significantly high appearance rate of regeneration nerve fascicles”.

On to `C[C@@](O)(C/C=C/[C@H]1CCC(=O)[C@@H]1CCSc1nc(C(=O)O)cs1)CC1CCCCC1` [compound 17, 2-[(2-{(1R,2R)-2-[(1E,4S)-5-cyclohexyl-4-hydroxy-4-methyl-1-penten-1-yl]-5-oxocyclopentyl}ethyl)thio]-1,3-thiazole-4-carboxylic acid], for which the EC50 is 31 nM on rat EP3 receptor and 11 nM on rat EP2 receptor. Also, the “decrease of the blood pressure” value with rat (left carotid artery) amounted to 5 mmHg. For the same molecule, the “increase rate of the cauda equina blood flow” value in the series on rat (observed until 30 minutes after) was 33%.
